Results published in patent US4988687A, “Cephalosporin derivatives, and antibacterial agents” (priority 1986, dated 1991).
Read-outs that look alike come from different tables or passages of the source.

Key:
[1] = tested on: E. coli GN5482; test: agar plate dilution method, MIC against E. coli GN5482; type: cell-based; details: Escherichia coli; E. coli GN5482 (lactamase-producing strain); 10^6 CFU/ml, 37° C., 16 hours; read-out: Minimum Inhibitory Concentration (MIC)
Protocol: (§1) The in vitro antibacterial activities of the compounds of the present invention against various microorganisms, were measured by the following agar plate dilution method. One platinum loopfull of each test microorganism incubated overnight in Mueller Hinton broth, was inoculated to Mueller Hinton agar (inoculum size: 10^6 CFU/ml) Such culture media containing various antibiotics in various concentrations were prepared After incubation at 37° C. for 16 hours, the minimum inhibitory concentrations (MIC: μg/ml) were measured. As comparative compounds, cefotaxime, oeftazidime and the compounds disclosed in Example 2 of Japanese Unexamined Patent Publication No. 215690/1985 e.g. sodium 7-[2-(2-aminothiazol-4-yl)-2-ethoxyiminoacetamido]-3-(1-carboxylatemethylpyridinio-4-yl)thiomethyl-3-cephem-4-carboxylate (hereinafter referred to simply as "Reference Example A") were employed.

[2] = tested on: S. epidermidis IAM12012; test: agar plate dilution method, MIC against S. epidermidis IAM12012; type: cell-based; details: Staphylococcus epidermidis, read-out: Minimum Inhibitory Concentration (MIC)
Protocol: as §1

[3] = tested on: Ps. aeruginosa AK 109; test: agar plate dilution method, MIC against Ps. aeruginosa AK 109; type: cell-based; details: Pseudomonas aeruginosa, read-out: Minimum Inhibitory Concentration (MIC)
Protocol: as §1

[4] = tested on: P. vulgaris No. 33; test: agar plate dilution method, MIC against P. vulgaris No. 33; type: cell-based; details: Proteus vulgaris; P. vulgaris No. 33 (lactamase-producing strain); 10^6 CFU/ml, 37° C., 16 hours; read-out: Minimum Inhibitory Concentration (MIC)
Protocol: as §1

[5] = tested on: Ps. maltophilia GN 12873; test: agar plate dilution method, MIC against Ps. maltophilia GN 12873; type: cell-based, Pseudomonas maltophilia; details: Stenotrophomonas maltophilia, GN12873; Ps. maltophilia GN 12873 (lactamase-producing strain); 10^6 CFU/ml, 37° C., 16 hours; read-out: Minimum Inhibitory Concentration (MIC)
Protocol: as §1

[6] = tested on: E. cloacae 963; test: agar plate dilution method, MIC against E. cloacae 963; type: cell-based; details: read-out: Minimum Inhibitory Concentration (MIC)
Protocol: as §1

[7] = tested on: K. pneumoniae PCI-602; test: agar plate dilution method, MIC against K. pneumoniae PCI-602; type: cell-based; details: Klebsiella pneumoniae, PCI602, 16 h, read-out: Minimum Inhibitory Concentration (MIC)
Protocol: as §1

[8] = tested on: M. morganii GN5407; test: agar plate dilution method, MIC against M. morganii GN5407; type: cell-based; details: Morganella morganii; M. morganii GN5407 (lactamase-producing strain); 10^6 CFU/ml, 37° C., 16 hours; read-out: Minimum Inhibitory Concentration (MIC)
Protocol: as §1

[9] = tested on: Ps. cepacia 23; test: agar plate dilution method, MIC against Ps. cepacia 23; type: cell-based, Pseudomonas cepacia; details: Burkholderia cepacia, 23, 16 h, read-out: Minimum Inhibitory Concentration (MIC)
Protocol: as §1

[10] = tested on: S. marcescens No. 16-2; test: agar plate dilution method, MIC against S. marcescens No. 16-2; type: cell-based; details: Serratia marcescens, NO.162, 16 h, read-out: Minimum Inhibitory Concentration (MIC)
Protocol: as §1

[11] = tested on: S. aureus 209P NIHJ-JC1; test: agar plate dilution method, MIC against S. aureus 209P NIHJ-JC1; type: cell-based; details: Staphylococcus aureus; S. aureus 209P NIHJ-JC1; 10^6 CFU/ml, Mueller Hinton agar, 37° C., 16 hours; read-out: Minimum Inhibitory Concentration (MIC)
Protocol: as §1

[12] = tested on: Ps. aeruginosa IFO3445; test: agar plate dilution method, MIC against Ps. aeruginosa IFO3445; type: cell-based; details: Pseudomonas aeruginosa, IFO3445, 16 h, read-out: Minimum Inhibitory Concentration (MIC)
Protocol: as §1

[13] = tested on: E. coli NIHJ JC2; test: agar plate dilution method, MIC against E. coli NIHJ JC2; type: cell-based; details: Escherichia coli, NIHJJC2; E. coli NIHJ JC2; 10^6 CFU/ml, 37° C., 16 hours; read-out: Minimum Inhibitory Concentration (MIC)
Protocol: as §1

[14] = tested on: E. coli CSH(RE45); test: agar plate dilution method, MIC against E. coli CSH(RE45); type: cell-based; details: Escherichia coli, 16 h, read-out: Minimum Inhibitory Concentration (MIC)
Protocol: as §1

[15] = tested on: K. pneumoniae No. 42; test: agar plate dilution method, MIC against K. pneumoniae No. 42; type: cell-based; details: Klebsiella pneumoniae; K. pneumoniae No. 42 (lactamase-producing strain); 10^6 CFU/ml, 37° C., 16 hours; read-out: Minimum Inhibitory Concentration (MIC)
Protocol: as §1

[16] = tested on: K. oxytoca GN10650; test: agar plate dilution method, MIC against K. oxytoca GN10650; type: cell-based; details: Klebsiella oxytoca; K. oxytoca GN10650 (lactamase-producing strain); 10^6 CFU/ml, 37° C., 16 hours; read-out: Minimum Inhibitory Concentration (MIC)
Protocol: as §1

[17] = tested on: E. coli CSH2 (RK1); test: agar plate dilution method, MIC against E. coli CSH2 (RK1); type: cell-based; details: Escherichia coli, 16 h, read-out: Minimum Inhibitory Concentration (MIC)
Protocol: as §1

[18] = tested on: S. aureus JS1; test: agar plate dilution method, MIC against S. aureus JS1; type: cell-based; details: Staphylococcus aureus, read-out: Minimum Inhibitory Concentration (MIC)
Protocol: as §1

[19] = tested on: C. freundii GN346; test: agar plate dilution method, MIC against C. freundii GN346; type: cell-based; details: Citrobacter freundii; C. freundii GN346 (lactamase-producing strain); 10^6 CFU/ml, 37° C., 16 hours; read-out: Minimum Inhibitory Concentration (MIC)
Protocol: as §1

[20] = tested on: C. freundii GN346/16; test: agar plate dilution method, MIC against C. freundii GN346/16; type: cell-based; details: Citrobacter freundii, read-out: Minimum Inhibitory Concentration (MIC)
Protocol: as §1

[21] = tested on: S. marcescens IAM 1184; test: agar plate dilution method, MIC against S. marcescens IAM 1184; type: cell-based; details: Serratia marcescens, IAM1184; S. marcescens IAM 1184; 10^6 CFU/ml, 37° C., 16 hours; read-out: Minimum Inhibitory Concentration (MIC)
Protocol: as §1

[22] = tested on: Ps. aeruginosa AKR17; test: agar plate dilution method, MIC against Ps. aeruginosa AKR17; type: cell-based; details: Pseudomonas aeruginosa; Ps. aeruginosa AKR17; 10^6 CFU/ml, 37° C., 16 hours; read-out: Minimum Inhibitory Concentration (MIC)
Protocol: as §1

[23] = tested on: E. cloacae Nek 39; test: agar plate dilution method, MIC against E. cloacae Nek 39; type: cell-based; details: Enterobacter cloacae, NEK39; E. cloacae Nek 39 (lactamase-producing strain); 10^6 CFU/ml, 37° C., 16 hours; read-out: Minimum Inhibitory Concentration (MIC)
Protocol: as §1

[24] = tested on: M. luteus ATCC9341; test: agar plate dilution method, MIC against M. luteus ATCC9341; type: cell-based; details: Micrococcus luteus; M. luteus ATCC9341; 10^6 CFU/ml, 37° C., 16 hours; read-out: Minimum Inhibitory Concentration (MIC)
Protocol: as §1

[25] = tested on: A. calcoaceticus No. 4; test: agar plate dilution method, MIC against A. calcoaceticus No. 4; type: cell-based; details: Acinetobacter calcoaceticus, read-out: Minimum Inhibitory Concentration (MIC)
Protocol: as §1

[26] = tested on: P. vulgaris HX-19; test: agar plate dilution method, MIC against P. vulgaris HX-19; type: cell-based; details: Proteus vulgaris, HX19, 16 h, read-out: Minimum Inhibitory Concentration (MIC)
Protocol: as §1

[27] = tested on: S. aureus BB5703; test: agar plate dilution method, MIC against S. aureus BB5703; type: cell-based; details: Staphylococcus aureus, BB5703, 16 h, read-out: Minimum Inhibitory Concentration (MIC)
Protocol: as §1

SMILES | MIC [1] | MIC [4] | MIC [5] | MIC [7] | MIC [8] | MIC [9] | MIC [10] | MIC [11] | MIC [12] | MIC [13] | MIC [14] | MIC [15] | MIC [16] | MIC [17] | MIC [19] | MIC [21] | MIC [22] | MIC [23] | MIC [24] | MIC [26] | also measured
Nc1nc(/C(=N/Oc2ccccc2)C(=O)NC2C(=O)N3C(C(=O)[O-])=C(CSc4cc[n+](CC(=O)O)cc4)CSC23)cs1 (stereo not drawn) [Example 7, sodium 7-[2-(2-aminothiazol-4-yl)-2-phenoxyiminoacetamido]-3-(1-carboxylatemethylpyridinio-4-yl)thiomethYl-3-cephem-4-carboxylate (syn-isomer)] | 1.56 µg/mL | 0.78 µg/mL | > 100 µg/mL | 0.025 µg/mL | 0.78 µg/mL | 3.12 µg/mL | 12.5 µg/mL | 0.39 µg/mL | 12.5 µg/mL | 0.78 µg/mL | 0.78 µg/mL | 3.12 µg/mL | 25 µg/mL | 0.78 µg/mL | 50 µg/mL | 0.78 µg/mL | > 100 µg/mL | 12.5 µg/mL | 0.1 µg/mL | < 0.006 µg/mL | MIC ([2]; IAM12012, 16 h): 0.2 µg/mL; MIC ([3]; AK109, Ps. aeruginosa AK 109, 10^6 CFU/ml, 37° C., 16 hours): 25 µg/mL; MIC ([6]; Enterobacter cloacae, 963, 16 h): 3.12 µg/mL; MIC ([18]; JS1, 16 h): 12.5 µg/mL; MIC ([20]; GN346, 16 h): 1.56 µg/mL; MIC ([25]; NO.4, 16 h): 3.12 µg/mL; MIC [27]: 3.12 µg/mL
CCON=C(C(=O)NC1C(=O)N2C(C(=O)[O-])=C(CSc3cc[n+](CC(=O)O)cc3)CSC12)c1csc(N)n1 (stereo not drawn) [Reference Example A, sodium 7-[2-(2-aminothiazol-4-yl)-2-ethoxyiminoacetamido]-3-(1-carboxylatemethylpyridinio-4-yl)thiomethyl-3-cephem-4-carboxylate, reference compound] | 0.2 µg/mL | 0.05 µg/mL | > 100 µg/mL | < 0.006 µg/mL | 0.05 µg/mL | 6.25 µg/mL | 6.25 µg/mL | 0.39 µg/mL | 6.25 µg/mL | 0.05 µg/mL | 0.05 µg/mL | 0.05 µg/mL | 3.12 µg/mL | 0.025 µg/mL | 25 µg/mL | 0.05 µg/mL | > 100 µg/mL | 1.56 µg/mL | 0.1 µg/mL | < 0.006 µg/mL | MIC ([2]; S. epidermidis IAM12012, 10^6 CFU/ml, 37° C., 16 hours): 0.05 µg/mL; MIC ([3]; AK109, 16 h): 12.5 µg/mL; MIC ([6]; Enterobacter cloacae, E. cloacae 963, 10^6 CFU/ml, 37° C., 16 hours): 0.1 µg/mL; MIC ([18]; S. aureus JS1 (methicilline resistant; lactamase-producing strain), 10^6 CFU/ml, 37° C., 16 hours): 100 µg/mL; MIC ([20]; C. freundii GN346/16, 10^6 CFU/ml, 37° C., 16 hours): 0.1 µg/mL; MIC ([25]; A. calcoaceticus No. 4, 10^6 CFU/ml, 37° C., 16 hours): 100 µg/mL; MIC [27]: 3.12 µg/mL
